Assay results taken from the supplement of paper PMC13380429.

Key:
Details in all cases: 72 h
[1] = tested on: Vero E6; experiment: drug sensitivity score (DSS) for viability; higher = more toxic; extreme values may be limits of the assay
[2] = tested on: Calu-3; experiment: as above
[3] = tested on: U2OS; experiment: as above
[4] = tested on: Caco-2; experiment: as above
[5] = tested on: HepG2; experiment: as above
[6] = tested on: Vero E6; experiment: cell viability relative to DMSO; higher = less toxic
[7] = tested on: Calu-3; experiment: as above
[8] = tested on: U2OS; experiment: as above
[9] = tested on: Caco-2; experiment: as above
[10] = tested on: HepG2; experiment: as above
[11] = tested on: Vero E6; experiment: relative viability EC50 (midpoint between 100% and the lowest measured viability); higher = less toxic
[12] = tested on: Calu-3; experiment: as above
[13] = tested on: U2OS; experiment: as above
[14] = tested on: Caco-2; experiment: as above
[15] = tested on: HepG2; experiment: as above

| SMILES | drug sensitivity score [1] | drug sensitivity score [2] | drug sensitivity score [3] | drug sensitivity score [4] | drug sensitivity score [5] | cell viability ([6]; 1 nM) [%] | cell viability ([6]; 10 nM) [%] | cell viability ([6]; 100 nM) [%] | cell viability ([6]; 1000 nM) [%] | cell viability ([6]; 10000 nM) [%] | cell viability ([7]; 1 nM) [%] | cell viability ([7]; 10 nM) [%] | cell viability ([7]; 100 nM) [%] | cell viability ([7]; 1000 nM) [%] | cell viability ([7]; 10000 nM) [%] | cell viability ([8]; 1 nM) [%] | cell viability ([8]; 10 nM) [%] | cell viability ([8]; 100 nM) [%] | cell viability ([8]; 1000 nM) [%] | cell viability ([8]; 10000 nM) [%] | cell viability ([9]; 1 nM) [%] | cell viability ([9]; 10 nM) [%] | cell viability ([9]; 100 nM) [%] | cell viability ([9]; 1000 nM) [%] | cell viability ([9]; 10000 nM) [%] | cell viability ([10]; 1 nM) [%] | cell viability ([10]; 10 nM) [%] | cell viability ([10]; 100 nM) [%] | cell viability ([10]; 1000 nM) [%] | cell viability ([10]; 10000 nM) [%] | relative viability EC50 [11] [µM] | relative viability EC50 [12] [µM] | relative viability EC50 [13] [µM] | relative viability EC50 [14] [µM] | relative viability EC50 [15] [µM] |
| --- | --- | --- | --- | --- | --- | --- | --- | --- | --- | --- | --- | --- | --- | --- | --- | --- | --- | --- | --- | --- | --- | --- | --- | --- | --- | --- | --- | --- | --- | --- | --- | --- | --- | --- | --- |
| Nc1ccc(S(=O)(=O)Nc2ccnn2-c2ccccc2)cc1 [sulfaphenazole] | 0 | 0 | 0 | 0 | 0 | 93.1 | 102 | 88.4 | 99.5 | 108 | 97.2 | 100 | 101 | 104 | 97.2 | 97.4 | 97.8 | 100 | 99.4 | 101 | 97.5 | 100 | 102 | 96.1 | 94 | 102 | 99.5 | 85.5 | 112 | 103 | > 10 | > 10 | > 10 | > 10 | > 10 |
| NC(=O)N1C(=O)/C(=C(\O)c2cccs2)c2cc(Cl)ccc21 [tenidap] | 0 | 0 | 0 | 0 | 0 | 102 | 103 | 94.6 | 93.1 | 99 | 109 | 97 | 85.4 | 108 | 99.9 | 99.6 | 98.3 | 93.3 | 102 | 99 | 98.3 | 94.6 | 97.1 | 94 | 91.6 | 98.4 | 110 | 98.8 | 106 | 99.9 | > 10 | > 10 | > 10 | > 10 | > 10 |
| O=C(O)C1CSCN1 (stereo not given) [timonacic] | 0 | 0 | 0 | 0 | 0 | 97 | 99.6 | 97.6 | 98.9 | 94.1 | 115 | 94.9 | 94.6 | 109 | 104 | 103 | 98.2 | 99.5 | 98.8 | 102 | 101 | 102 | 96.4 | 88.3 | 102 | 94.4 | 98.7 | 88.1 | 98.4 | 97.9 | > 10 | > 10 | > 10 | > 10 | > 10 |
| CCOC(=O)NNc1nncc2ccccc12 [todralazine] | 0 | 0 | 0 | 0 | 0 | 101 | 88.3 | 97.3 | 91.5 | 99.4 | 84.4 | 109 | 101 | 110 | 103 | 98.6 | 100 | 97.1 | 102 | 105 | 90.4 | 111 | 84.2 | 94.4 | 117 | 79.3 | 97.3 | 125 | 112 | 97.3 | > 10 | > 10 | > 10 | > 10 | > 10 |
| CC[C@@]1(O)C(=O)OCc2c1cc1n(c2=O)Cc2cc3c(CN(C)C)c(O)ccc3nc2-1 [topotecan] | 7.5 | 12.6 | 10.2 | 10.4 | 23.6 | 102 | 97.3 | 95.1 | 65.1 | 39.8 | 111 | 102 | 77.3 | 47.2 | 20.1 | 101 | 107 | 97.9 | 60.6 | 5.9 | 97.7 | 92.8 | 83.3 | 58.6 | 16.2 | 110 | 70.3 | 48.6 | 18.8 | 1.4 | 0.756 | 0.38 | 1.16 | 0.748 | 0.0757 |
| CC(C)(Sc1ccncc1-c1ccc(C#N)c2ccccc12)C(=O)O [verinurad] | 0 | 0 | 0 | 0 | 0 | 95.3 | 101 | 91.9 | 99.4 | 106 | 106 | 93.7 | 90.9 | 113 | 96.8 | 103 | 99.5 | 96.8 | 99.8 | 103 | 97.6 | 93.2 | 101 | 95 | 101 | 103 | 99.8 | 93.3 | 105 | 122 | > 10 | > 10 | > 10 | > 10 | > 10 |
| O=c1ncccn1[C@@H]1O[C@H](CO)[C@@H](O)[C@H]1O [zebularine] | 0 | 0.3 | 0 | 0 | 0 | 99.6 | 99.1 | 102 | 97.9 | 99.1 | 94.4 | 102 | 85.9 | 96.7 | 84.4 | 97.8 | 99.2 | 96.8 | 101 | 92.6 | 103 | 102 | 104 | 97.9 | 101 | 113 | 97.5 | 111 | 101 | 103 | > 10 | > 10 | > 10 | > 10 | > 10 |
